Results taken from patent US8124793B2, “Derivatives of ethylene methanedisulfonate as cancer chemotherapeutic agents” (priority 2007, dated 2012).

Columns and labels:
Type in all cases: cell-based
[1] = tested on: CCRF-CEM; test: NCI screen, growth of human tumor cells: Leukemia CCRF-CEM; details: CCRF-CEM
Method in brief: (§1)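 The NCI screen tests each compound on human cancer cell lines and reports percent growth. Concentrations are given in molar units; the number of data points per compound is sixty at minimum.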

[2] = tested on: MOLT-4; test: NCI screen, growth of human tumor cells: Leukemia MOLT-4; details: MOLT-4 (Leukemia), 10^−4 molar
Method in brief: as §1

[3] = tested on: RPMI-8226; test: NCI screen, growth of human tumor cells: Leukemia RPMI-8226; details: RPMI-8226 (Leukemia), 10^−4 molar
Method in brief: as §1

[4] = tested on: SR; test: NCI screen, growth of human tumor cells: Leukemia SR; details: SR
Method in brief: as §1

[5] = tested on: AS49/ATCC; test: NCI screen, growth of human tumor cells: Non-Small Cell Lung AS49/ATCC; details: A549/ATCC, 10^−4 molar
Protocol: (§2) In the NCI screening process, each compound was tested and described by a minimum of 60 data points. The test data include, but are not limited to the type of cancer, the molar concentration used in the screen, and the percent growth of the cancer. In some cases, NMR and elemental analysis were used for structural assignment.

[6] = tested on: EKVX; test: NCI screen, growth of human tumor cells: Non-Small Cell Lung EKVX; details: EKVX, 10^−4 molar
Method in brief: as §1

[7] = tested on: HOP-62; test: NCI screen, growth of human tumor cells: Non-Small Cell Lung HOP-62; details: HOP-62, 10^−4 molar
Method in brief: as §1

[8] = tested on: HOP-92; test: NCI screen, growth of human tumor cells: Non-Small Cell Lung HOP-92; details: HOP-92 (Non-Small Cell Lung), 10^−4 molar
Method in brief: as §1

[9] = tested on: NCI-H522; test: NCI screen, growth of human tumor cells: Non-Small Cell Lung NCI-H522
Method in brief: as §1

[10] = tested on: NCI-H460; test: NCI screen, growth of human tumor cells: Non-Small Cell Lung NCI-H460; details: NCI-H460 (Non-Small Cell Lung), 10^−4 molar
Method in brief: as §1

[11] = tested on: NCI-H322M; test: NCI screen, growth of human tumor cells: Non-Small Cell Lung NCI-H322M; details: 10^−4 molar
Protocol: as §2

[12] = tested on: NCI-H23; test: NCI screen, growth of human tumor cells: Non-Small Cell Lung NCI-H23; details: NCI-H23, 10^−4 molar
Method in brief: as §1

[13] = tested on: HCC-2998; test: NCI screen, growth of human tumor cells: HCC-2998 (listed under Non-Small Cell Lung); details: HCC-2998, 10^−4 molar
Protocol: as §2

[14] = tested on: COLO205; test: NCI screen, growth of human tumor cells: Colon Cancer COLO205
Method in brief: as §1

[15] = tested on: HCT-116; test: NCI screen, growth of human tumor cells: Colon Cancer HCT-116; details: HCT-116, 10^−4 molar
Method in brief: as §1

[16] = tested on: HCT-15; test: NCI screen, growth of human tumor cells: Colon Cancer HCT-15; details: HCT-15 (Colon Cancer), 10^−4 molar
Method in brief: as §1

[17] = tested on: HT29; test: NCI screen, growth of human tumor cells: Colon Cancer HT29; details: HT-29, 10^−4 molar
Protocol: as §2

[18] = tested on: KM12; test: NCI screen, growth of human tumor cells: Colon Cancer KM12; details: KM12, 10^−4 molar
Method in brief: as §1

[19] = tested on: SF-268; test: NCI screen, growth of human tumor cells: CNS Cancer SF-268
Method in brief: as §1

[20] = tested on: SF-295; test: NCI screen, growth of human tumor cells: CNS Cancer SF-295
Method in brief: as §1

[21] = tested on: SNB-19; test: NCI screen, growth of human tumor cells: CNS Cancer SNB-19; details: SNB-19, 10^−4 molar
Protocol: as §2

[22] = tested on: SNB-75; test: NCI screen, growth of human tumor cells: CNS Cancer SNB-75
Method in brief: as §1

[23] = tested on: U-251; test: NCI screen, growth of human tumor cells: CNS Cancer U-251; details: U251, 10^−4 molar
Method in brief: as §1

[24] = tested on: M14; test: NCI screen, growth of human tumor cells: Melanoma M14; details: M14, 10^−4 molar
Method in brief: as §1

[25] = tested on: MALME-3M; test: NCI screen, growth of human tumor cells: Melanoma MALME-3M; details: MALME-3M
Method in brief: as §1

[26] = tested on: SK-MEL-2; test: NCI screen, growth of human tumor cells: Melanoma SK-MEL-2; details: SK-MEL-2, 10^−4 molar
Method in brief: as §1

[27] = tested on: SK-MEL-28; test: NCI screen, growth of human tumor cells: Melanoma SK-MEL-28; details: SK-MEL-28 (Melanoma), 10^−4 molar
Method in brief: as §1

[28] = tested on: SK-MEL-5; test: NCI screen, growth of human tumor cells: Melanoma SK-MEL-5; details: SK-MEL-5, 10^−4 molar
Method in brief: as §1

[29] = tested on: UACC-257; test: NCI screen, growth of human tumor cells: Melanoma UACC-257; details: UACC-257 (Melanoma), 10^−4 molar
Method in brief: as §1

[30] = tested on: UACC-62; test: NCI screen, growth of human tumor cells: Melanoma UACC-62; details: UACC-62, 10^−4 molar
Method in brief: as §1

[31] = tested on: IGROVI; test: NCI screen, growth of human tumor cells: Ovarian Cancer IGROVI; details: IGROVI
Method in brief: as §1

[32] = tested on: OVCAR-3; test: NCI screen, growth of human tumor cells: Ovarian Cancer OVCAR-3; details: OVCAR-3, 10^−4 molar
Method in brief: as §1

[33] = tested on: OVCAR-4; test: NCI screen, growth of human tumor cells: Ovarian Cancer OVCAR-4; details: OVCAR-4 (Ovarian Cancer), 10^−4 molar
Method in brief: as §1

[34] = tested on: OVCAR-5; test: NCI screen, growth of human tumor cells: Ovarian Cancer OVCAR-5; details: OVCAR-5, 10^−4 molar
Method in brief: as §1

[35] = tested on: TK-10; test: NCI screen, growth of human tumor cells: Renal Cancer TK-10; details: TK-10 (Renal Cancer), 10^−4 molar
Protocol: as §2

[36] = tested on: SN12C; test: NCI screen, growth of human tumor cells: Renal Cancer SN12C; details: SN12C (Renal Cancer), 10^−4 molar
Method in brief: as §1

[37] = tested on: CAKI-1; test: NCI screen, growth of human tumor cells: Renal Cancer CAKI-1; details: CAKI-1, 10^−4 molar
Method in brief: as §1

[38] = tested on: UO-31; test: NCI screen, growth of human tumor cells: Renal Cancer UO-31; details: UO-31 (Renal Cancer), 10^−4 molar
Method in brief: as §1

[39] = tested on: PC-3; test: NCI screen, growth of human tumor cells: Prostate Cancer PC-3; details: PC-3, 10^−4 molar
Protocol: as §2

[40] = tested on: DU-145; test: NCI screen, growth of human tumor cells: Prostate Cancer DU-145; details: DV-145, 10^−4 molar
Method in brief: as §1

[41] = tested on: MCF7/ADR-RES; test: NCI screen, growth of human tumor cells: Breast Cancer MCF7/ADR-RES; details: MCF7/ADR-RES, 10^−4 molar
Method in brief: as §1

[42] = tested on: BT-549; test: NCI screen, growth of human tumor cells: Breast Cancer BT-549; details: BT-549 (Breast Cancer), 10^−4 molar
Method in brief: as §1

[43] = tested on: HS 578T; test: NCI screen, growth of human tumor cells: Breast Cancer HS 578T; details: H5-578T
Method in brief: as §1

[44] = tested on: MDA-MB-231/ATCC; test: NCI screen, growth of human tumor cells: Breast Cancer MDA-MB-231/ATCC; details: MDA-MB-231/ATCC (Breast Cancer), 10^−4 molar
Protocol: as §2

[45] = tested on: human cancer cells; test: NCI screen summary over the cancers tested (negative growth of human cancer cells); details: 10^−4 M conc.
Protocol: as §2
The derivatives in the tables are grouped using the same category as in the tables 1-6.

propane-1-[hydroxyhydrogensulfate]-3-(2-methylnaphthyl)-3,3-(ethylenedisulfonate) [NSC 693879]
% Growth ([1]; 10^−4 molar): −33%
% Growth ([1]; 10^−5 molar): 52%
percent of growth of human tumor cells [2]: −16%
percent of growth of human tumor cells [3]: −28%
% Growth ([4]; 10^−4 molar): −19%
% Growth ([4]; 10^−5 molar): 13%
% Growth [5]: −62%
% Growth [6]: −90%
% Growth [7]: −65%
percent of growth of human tumor cells [8]: −35%
% Growth ([9]; NCI-H522, 10^−4 molar): −100%
% Growth ([9]; NCI-H522, 10^−5 molar): 35%
% Growth ([9]; NCI-H522, 10^−6 molar): 63%
percent of growth of human tumor cells [10]: −58%
percent of growth of human tumor cells ([11]; NCI-H322M (Non-Small Cell Lung)): −71%
% Growth ([11]; NCI-H322M): −71%
% Growth [12]: −65%
% Growth [13]: −78%
% Growth ([14]; COLO205, 10^−4 molar): −73%
% Growth ([14]; COLO205, 10^−5 molar): 57%
% Growth [15]: −79%
percent of growth of human tumor cells [16]: −39%
% Growth [17]: −86%
% Growth [18]: −92%
% Growth ([19]; SF-268, 10^−4 molar): −56%
% Growth ([19]; SF-268, 10^−5 molar): 59%
% Growth ([20]; SF-295, 10^−4 molar): −82%
% Growth ([20]; SF-295, 10^−5 molar): 58%
% Growth [21]: −72%
% Growth ([22]; SNB-75, 10^−4 molar): −62%
% Growth ([22]; SNB-75, 10^−5 molar): 55%
% Growth [23]: −100%
% Growth [24]: −100%
% Growth ([25]; 10^−4 molar): −100%
% Growth ([25]; 10^−5 molar): 44%
% Growth ([25]; 10^−6 molar): 62%
% Growth [26]: −99%
percent of growth of human tumor cells [27]: −5%
% Growth [28]: −100%
percent of growth of human tumor cells [29]: −32%
% Growth [30]: −66%
% Growth ([31]; 10^−4 molar): −89%
% Growth ([31]; 10^−5 molar): 50%
% Growth ([31]; 10^−6 molar): 60%
% Growth ([31]; 10^−7 molar): 52%
% Growth [32]: −100%
percent of growth of human tumor cells [33]: −40%
% Growth [34]: −100%
percent of growth of human tumor cells [35]: −3%
percent of growth of human tumor cells [36]: −57%
% Growth [37]: −87%
percent of growth of human tumor cells [38]: −48%
% Growth [39]: −100%
% Growth [40]: −100%
% Growth [41]: −54%
percent of growth of human tumor cells [42]: −34%
% Growth ([43]; 10^−4 molar): −49%
% Growth ([43]; 10^−5 molar): 55%
percent of growth of human tumor cells [44]: −54%
percentage of cancers that had −100% growth [45]: 20%
Percentage of cancers showing negative growth cancers tested ([45]; cancers with negative growth / cancers tested): 100%
